Source: patent publication US20150218212A1, “FLUORINATED EPOXYKETONE-BASED TETRAPEPTIDE COMPOUNDS AND USES THEREOF AS PROTEASOME INHIBITORS” (FLUORINOV PHARMA INC., priority 2012, published 2015)

Experiments:
Format in all cases: cell-based, human
[1] = system: NCI-H460; assay: NCI screening panel, NCI-H460 (Non-Small Cell Lung Cancer)
Protocol: (§1) Representative compounds of Formula I were screened using the National Cancer Institute (NCI) screening panel, which consists of a panel of human tumor cell lines, representing leukemia, melanoma, and cancers of the lung, colon, ovary, breast, prostate and renal system.
(§2) After 24 h, two plates of each cell line are fixed in situ with TCA, to represent a measurement of the cell population for each cell line at the time of drug addition (Tz). Experimental drugs are solubilised in dimethyl sulfoxide at 400-fold the desired final maximum test concentration and stored frozen prior to use. At the time of drug addition, an aliquot of frozen concentrate is thawed and diluted to twice the desired final maximum test concentration with complete medium containing 50 μg/mL gentamicin. Additional four, 10-fold or ½ log serial dilutions are made to provide a total of five drug concentrations plus control. Aliquots of 100 μl of these different drug dilutions are added to the appropriate microtiter wells already containing 100 μl of medium, resulting in the required final drug concentrations.
(§3) Following drug addition, the plates are incubated for an additional 48 h at 37° C., 5% CO2, 95% air, and 100% relative humidity. For adherent cells, the assay is terminated by the addition of cold TCA (trichloroacetic acid). Cells are fixed in situ by the gentle addition of 50 μl of cold 50% (w/v) TCA (final concentration, 10% TCA) and incubated for 60 minutes at 4° C. The supernatant is discarded, and the plates are washed five times with tap water and air dried. Sulforhodamine B (SRB) solution (100 μl) at 0.4% (w/v) in 1% acetic acid is added to each well, and plates are incubated for 10 minutes at room temperature. After staining, unbound dye is removed by washing five times with 1% acetic acid and the plates are air dried. Bound stain is subsequently solubilised with 10 mM trizma base, and the absorbance is read on an automated plate reader at a wavelength of 515 nm. For suspension cells, the methodology is the same except that the assay is terminated by fixing settled cells at the bottom of the wells by gently adding 50 μl of 80% TCA (final concentration, 16% TCA). Using the seven absorbance measurements [time zero, (Tz), control growth, (C), and test growth in the presence of drug at the five concentration levels (Ti)], the percentage growth is calculated at each of the drug concentrations levels. Percentage growth inhibition is calculated as: [(Ti−Tz)/(C−Tz)]×100 for concentrations for which Ti>/=Tz and [(Ti−Tz)/Tz]×100 for concentrations for which Ti<Tz.
(§4) Three dose response parameters are calculated for each experimental agent. Growth inhibition of 50% (GI50) is calculated from [(Ti−Tz)/(C−Tz)]×100=50, which is the drug concentration resulting in a 50% reduction in the net protein increase (as measured by SRB staining) in control cells during the drug incubation. The drug concentration resulting in total growth inhibition (TGI) is calculated from Ti=Tz. The LC50 (concentration of drug resulting in a 50% reduction in the measured protein at the end of the drug treatment as compared to that at the beginning) indicating a net loss of cells following treatment is calculated from [(Ti−Tz)/Tz]×100=−50. Values are calculated for each of these three parameters if the level of activity is reached. However, if the effect is not reached or is exceeded, the value for that parameter is expressed as greater or less than the maximum or minimum concentration tested.

[2] = system: LOX IMVI; assay: NCI screening panel, LOX IMVI (Melanoma)
Protocol: as §1, §2, §3, §4

[3] = system: IGROV1; assay: NCI screening panel, IGROV1 (Ovarian Cancer)
Protocol: as §1, §2, §3, §4

[4] = system: TK-10; assay: NCI screening panel, TK-10 (Renal Cancer)
Protocol: as §1, §2, §3, §4

[5] = system: OVCAR-4; assay: NCI screening panel, OVCAR-4 (Ovarian Cancer)
Protocol: as §1, §2, §3, §4

[6] = system: SK-OV-3; assay: NCI screening panel, SK-OV-3 (Ovarian Cancer)
Protocol: as §1, §2, §3, §4

[7] = system: MDA-MB-231/ATCC; assay: NCI screening panel, MDA-MB-231/ATCC (Breast Cancer)
Protocol: as §1, §2, §3, §4

[8] = system: M14; assay: NCI screening panel, M14 (Melanoma)
Protocol: as §1, §2, §3, §4

[9] = system: T-47D; assay: NCI screening panel, T-47D (Breast Cancer)
Protocol: as §1, §2, §3, §4

[10] = system: SF-268; assay: NCI screening panel, SF-268 (CNS Cancer)
Protocol: as §1, §2, §3, §4

[11] = system: MDA-MB-468; assay: NCI screening panel, MDA-MB-468 (Breast Cancer)
Protocol: as §1, §2, §3, §4

[12] = system: NCI/ADR-RES; assay: NCI screening panel, NCI/ADR-RES (Ovarian Cancer)
Protocol: as §1, §2, §3, §4

[13] = system: HCC-2998; assay: NCI screening panel, HCC-2998 (Colon Cancer)
Protocol: as §1, §2, §3, §4

[14] = system: COLO 205; assay: NCI screening panel, COLO 205 (Colon Cancer)
Protocol: as §1, §2, §3, §4

CC(C)C[C@H](NC(=O)[C@H](COC(F)F)NC(=O)CN1CCOCC1)C(=O)N[C@@H](Cc1ccccc1)C(=O)N[C@@H](Cc1ccccc1)C(=O)[C@@]1(C)CO1 [Example 3, (2S)-N-[(1S)-1-benzyl-2-[[(1S)-1-benzyl-2-[(2R)-2-methyloxiran-2-yl]-2-oxo-ethyl]amino]-2-oxo-ethyl]-2-[[(2S)-3-(difluoromethoxy)-2-[(2-morpholinoacetyl)-amino]propanoyl]amino]-4-methyl-pentan-amide]
Log10GI50 [1]: −7.43
Log10LC50 [1]: −5.64
Log10TGI50 [1]: −6.77
Log10GI50 [2]: <−8.00
Log10LC50 [2]: −7.13
Log10TGI50 [2]: −7.71
Log10GI50 [3]: −7.93
Log10LC50 [3]: >−4.00
Log10TGI50 [3]: −7.02
Log10GI50 [4]: −7.55
Log10LC50 [4]: >−4.00
Log10TGI50 [4]: −5.91
Log10GI50 [5]: −7.88
Log10TGI50 [5]: >−4.00
Log10GI50 [6]: −7.26
Log10LC50 [6]: >−4.00
Log10TGI50 [6]: −6.16
Log10GI50 [7]: <−8.00
Log10LC50 [7]: −4.81
Log10TGI50 [7]: −7.08
Log10GI50 [8]: −7.69
Log10LC50 [8]: >−4.00
Log10TGI50 [8]: −6.54
Log10GI50 [9]: <−8.00
Log10TGI50 [9]: −7.59
Log10GI50 [10]: <−8.00
Log10LC50 [10]: −4.98
Log10TGI50 [10]: −7.40
Log10GI50 [11]: <−8.00
Log10LC50 [11]: −6.09
Log10TGI50 [11]: −7.34
Log10GI50 [12]: −5.86
Log10LC50 [12]: >−4.00
Log10TGI50 [12]: >−4.00
Log10GI50 [13]: −7.78
Log10LC50 [13]: −7.18
Log10TGI50 [13]: −7.48
Log10GI50 [14]: −7.73
Log10LC50 [14]: −4.53
Log10TGI50 [14]: −6.48

CC(C)C[C@H](NC(=O)[C@H](COC(F)F)NC(=O)CN1CCOCC1)C(=O)N[C@@H](COC(F)F)C(=O)N[C@@H](Cc1ccccc1)C(=O)[C@@]1(C)CO1 [Example 4, (2S)-N-[(1S)-2-[[(1S)-1-benzyl-2-[(2R)-2-methyloxiran-2-yl]-2-oxo-ethyl]amino]-1-(difluoromethoxymethyl)-2-oxo-ethyl]-2-[[(2S)-3-(difluoromethoxy)-2-[(2-mor-pholinoacetyl)amino]propanoyl]amino]-4 methyl-pentanamide]
Log10GI50 [1]: −6.84
Log10LC50 [1]: −4.04
Log10TGI50 [1]: −6.19
Log10GI50 [2]: −7.77
Log10LC50 [2]: −7.06
Log10TGI50 [2]: −7.42
Log10GI50 [3]: −7.33
Log10LC50 [3]: >−4.00
Log10TGI50 [3]: −5.57
Log10GI50 [4]: −6.57
Log10LC50 [4]: >−4.00
Log10TGI50 [4]: −5.48
Log10GI50 [5]: −7.43
Log10LC50 [5]: >−4.00
Log10TGI50 [5]: −6.34
Log10GI50 [6]: −6.84
Log10LC50 [6]: >−4.00
Log10TGI50 [6]: −6.02
Log10GI50 [7]: −7.45
Log10LC50 [7]: −4.14
Log10TGI50 [7]: −6.37
Log10GI50 [8]: −6.97
Log10LC50 [8]: >−4.00
Log10TGI50 [8]: −5.66
Log10GI50 [9]: −7.68
Log10TGI50 [9]: −7.08
Log10GI50 [10]: −7.58
Log10LC50 [10]: >−4.00
Log10TGI50 [10]: −6.82
Log10GI50 [11]: −7.35
Log10LC50 [11]: >−4.00
Log10TGI50 [11]: −6.37
Log10GI50 [12]: −5.19
Log10LC50 [12]: >−4.00
Log10TGI50 [12]: >−4.00
Log10GI50 [13]: −7.29
Log10LC50 [13]: −6.30
Log10TGI50 [13]: −6.75
Log10GI50 [14]: −7.25
Log10LC50 [14]: −4.46
Log10TGI50 [14]: −6.28
